Values quoted from earlier work as cited in US7872030B2, “Use of 2-[5-(4-fluorophenyl)-3-pyridylmethylaminomethyl]-chromane and its physiologically acceptable salts” (Merck Patent GmbH, priority 2001, dated 2011).

System: advanced Parkinson patients
Conditions: cited from earlier work

O=C1CC2(CCCC2)CC(=O)N1CCCCN1CCN(c2ncccn2)CC1 [buspirone]
anti-dyskinetic properties: moderate anti-dyskinetic properties
